Drawing on ChEMBL document CHEMBL1149021, “Vasoactive substances from Saussurea lappa” (J Nat Prod, 1986), this text covers Activity for two compounds.

Activity calls are given as the source filed them. The calls are words filed in the database; no cut-off is given here.

The species named for the experiment is Oryctolagus cuniculus. The experiment is described as follows: Vasorelaxant activity in rabbit aorta assessed as inhibition of KCl-induced contraction. Type of experiment: functional, tissue-based.

In the case of `C=C1C(=O)O[C@@H]2/C=C(\C)CC/C=C(\C)CC[C@@H]12`, the result was Active. For `C=C1CC[C@H]2C(=C)C(=O)O[C@@H]2C2C(=C)CCC12` (some centres not stated), the outcome was Active.
